This note sets out measurements from ChEMBL document CHEMBL5380833 (J Med Chem, 2023).

Experiment [1] deals with T1, Protein cereblon/Tyrosine-protein kinase ITK/TSK (Homo sapiens, UniProt Q08881+Q96SW2). As to the kind of experiment: PROTAC activity at CRBN/ITK in human Jurkat cells assessed as induction of ITK degradation by Western blot analysis. The class given is cell-based. In general terms: Immunoblotting shows a protein as a band on a membrane.
Target sequence in this assay (Q96SW2 whole entry, one chain of several): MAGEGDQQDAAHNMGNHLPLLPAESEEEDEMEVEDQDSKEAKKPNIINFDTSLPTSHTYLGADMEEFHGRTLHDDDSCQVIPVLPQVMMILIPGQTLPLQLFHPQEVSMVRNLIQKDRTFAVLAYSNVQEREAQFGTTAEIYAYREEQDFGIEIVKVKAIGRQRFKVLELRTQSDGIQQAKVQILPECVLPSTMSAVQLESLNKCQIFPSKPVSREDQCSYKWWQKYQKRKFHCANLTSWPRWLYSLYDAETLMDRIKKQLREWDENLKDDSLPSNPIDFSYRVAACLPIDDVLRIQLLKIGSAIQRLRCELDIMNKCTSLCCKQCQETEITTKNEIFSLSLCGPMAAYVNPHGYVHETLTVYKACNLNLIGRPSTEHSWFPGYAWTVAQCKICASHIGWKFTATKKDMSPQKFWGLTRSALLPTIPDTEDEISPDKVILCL
Experiment [2] addresses T1, Protein cereblon/Tyrosine-protein kinase ITK/TSK. Description: PROTAC activity at CRBN/ITK in human Jurkat cells assessed as maximum degradation at 0.01 to 10 uM by Western blot analysis relative to control. Type of experiment: cell-based. The following applies: dose 0.01-10 µM.
Target sequence in this assay (Q96SW2 whole entry, looked up, one chain of several): as the sequence (Q96SW2 whole entry, one chain of several) above
Experiment [3] has as its target T2, Tyrosine-protein kinase ITK/TSK (Homo sapiens, UniProt Q08881).
T2 sequence (Q08881 whole entry): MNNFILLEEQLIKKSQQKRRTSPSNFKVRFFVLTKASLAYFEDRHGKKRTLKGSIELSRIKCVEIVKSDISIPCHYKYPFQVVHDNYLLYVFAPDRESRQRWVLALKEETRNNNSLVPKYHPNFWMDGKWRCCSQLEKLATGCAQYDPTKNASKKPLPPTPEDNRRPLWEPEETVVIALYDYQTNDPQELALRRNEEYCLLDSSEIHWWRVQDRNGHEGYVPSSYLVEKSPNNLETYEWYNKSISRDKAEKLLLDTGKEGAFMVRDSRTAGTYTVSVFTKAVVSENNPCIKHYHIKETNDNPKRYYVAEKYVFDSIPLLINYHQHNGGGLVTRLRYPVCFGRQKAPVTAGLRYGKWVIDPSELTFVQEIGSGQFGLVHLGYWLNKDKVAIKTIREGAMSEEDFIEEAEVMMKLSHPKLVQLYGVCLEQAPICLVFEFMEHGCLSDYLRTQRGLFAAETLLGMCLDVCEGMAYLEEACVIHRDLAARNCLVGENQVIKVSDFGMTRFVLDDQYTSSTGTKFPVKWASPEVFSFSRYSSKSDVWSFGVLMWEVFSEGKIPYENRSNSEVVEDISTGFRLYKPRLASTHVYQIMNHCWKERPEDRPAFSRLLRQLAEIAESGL
Description: Inhibition of ITK (unknown origin).

Another experiment deals with Interleukin-2 (Homo sapiens, UniProt P60568). As to the kind of experiment: Inhibition of IL-2 in human Jurkat T cells pretreated with compound for 16 hrs followed by anti-CD3 stimulation by ELISA analysis. Type of experiment: cell-based. In general terms: In an ELISA, binding on a coated surface is turned into a signal by an enzyme label.
Interleukin-2, sequence (P60568 whole entry): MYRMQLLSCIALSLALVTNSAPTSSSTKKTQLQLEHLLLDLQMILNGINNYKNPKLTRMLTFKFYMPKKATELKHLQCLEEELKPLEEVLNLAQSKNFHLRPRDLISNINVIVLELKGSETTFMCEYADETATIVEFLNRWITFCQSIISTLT

The term EC50 denotes the concentration giving half of the maximal effect. For orientation: Emax means the greatest response seen or fitted, relative to the assay's reference. What is called IC50 is the point on the concentration scale where inhibition reaches its midpoint.

On to `CN(CCOCCOCCOCCNC(=O)CNc1cccc2c1C(=O)N(C1CCC(=O)NC1=O)C2=O)CC[C@@H](c1ccccc1)n1cc(NC(=O)c2n[nH]c3c2CCC(C)(C)C3)cn1` (some centres not stated), for which the EC50 in experiment [1] (read-out: EC50) stood at 62.2 nM. Moreover, the Emax in experiment [2] came to 93%.
`COc1cccc(-n2c(=O)c(C(=O)Nc3ccc(-c4nc(-c5ccnc(N6CC(OC)C6)c5)cnc4N)nc3)c(C)n2C)c1`: in experiment [3], the concentration for half-maximal inhibition (IC50) was less than 4 nM.
Turning to `CN(CCOCCOCCOCCOCC(=O)Nc1cccc2c1C(=O)N(C1CCC(=O)NC1=O)C2=O)CC[C@@H](c1ccccc1)n1cc(NC(=O)c2n[nH]c3c2CCC(C)(C)C3)cn1` (some centres not stated), the EC50 in experiment [1] (read-out: EC50) amounted to 286 nM. Besides, the maximal response (Emax) in experiment [2] is 75%.
The matching figures for `CN(CCCCCCCCCCC(=O)Nc1ccc2c(c1)C(=O)N(C1CCC(=O)NC1=O)C2=O)CC[C@@H](c1ccccc1)n1cc(NC(=O)c2n[nH]c3c2CCC(C)(C)C3)cn1` (some centres not stated): 75.4 nM and 82%.
Regarding `CN(CCOCCOCCNC(=O)CNc1cccc2c1C(=O)N(C1CCC(=O)NC1=O)C2=O)CC[C@@H](c1ccccc1)n1cc(NC(=O)c2n[nH]c3c2CCC(C)(C)C3)cn1` (some centres not stated), in experiment [1] (read-out: EC50), the EC50 was found to be 32.7 nM. The maximal response (Emax) in experiment [2] stood at 95%.
The matching figures for `CN(CCCCCCCCC(=O)Nc1ccc2c(c1)C(=O)N(C1CCC(=O)NC1=O)C2=O)CC[C@@H](c1ccccc1)n1cc(NC(=O)c2n[nH]c3c2CCC(C)(C)C3)cn1` (some centres not stated): 5.5 nM and 93%.
For `CN(CCCCCCC(=O)Nc1ccc2c(c1)C(=O)N(C1CCC(=O)NC1=O)C2=O)CC[C@@H](c1ccccc1)n1cc(NC(=O)c2n[nH]c3c2CCC(C)(C)C3)cn1` (some centres not stated), the concentration for a half-maximal effect (EC50) in experiment [1] (read-out: EC50) worked out at 9 nM. In addition, the Emax in experiment [2] is 90%.
For the molecule `CN(CCOCCC(=O)NC1=CCC2C(=O)N(C3CCC(=O)NC3=O)C(=O)C2=C1)CC[C@@H](c1ccccc1)n1cc(NC(=O)c2n[nH]c3c2CCC(C)(C)C3)cn1` (some centres not stated), in experiment [1] (read-out: EC50), the EC50 was 15.6 nM. Further, the Emax in experiment [2] worked out at 97%.
`CN(CCOCCOCC(=O)Nc1cccc2c1C(=O)N(C1CCC(=O)NC1=O)C2=O)CC[C@@H](c1ccccc1)n1cc(NC(=O)c2n[nH]c3c2CCC(C)(C)C3)cn1` (some centres not stated): the EC50 in experiment [1] (read-out: EC50) was found to be 220 nM. Moreover, the maximum response (Emax) in experiment [2] was 75%.
With `CN(CCCCCC(=O)Nc1ccc2c(c1)C(=O)N(C1CCC(=O)N(C)C1=O)C2=O)CC[C@@H](c1ccccc1)n1cc(NC(=O)c2n[nH]c3c2CCC(C)(C)C3)cn1` (some centres not stated), in experiment [1] (jurkat), the EC50 entry was “Not Active”.
With `CC1(C)CCc2c(C(=O)Nc3cnn([C@@H](CCN4CCN(CC5CN(c6ccc7c(c6)C(=O)N(C6CCC(=O)NC6=O)C7=O)C5)CC4)c4ccccc4)c3)n[nH]c2C1` (some centres not stated), the concentration giving a half-maximal response (EC50) in experiment [1] (read-out: EC50) amounted to 10 nM. Besides, in experiment [2], the maximum response (Emax) was determined as 85%.
Taken in the same sequence, the figures for `CN(CCOCCOCCOCCOCC(=O)Nc1ccc2c(c1)C(=O)N(C1CCC(=O)NC1=O)C2=O)CC[C@@H](c1ccccc1)n1cc(NC(=O)c2n[nH]c3c2CCC(C)(C)C3)cn1` (some centres not stated) were 106 nM and 92%.
The matching figures for `CN(CCOCCOCCOCC(=O)Nc1cccc2c1C(=O)N(C1CCC(=O)NC1=O)C2=O)CC[C@@H](c1ccccc1)n1cc(NC(=O)c2n[nH]c3c2CCC(C)(C)C3)cn1` (some centres not stated): 353 nM and 75%.
On to `CC1(C)CCc2c(C(=O)Nc3cnn([C@@H](CCN4CCN(CC5CCN(c6ccc7c(c6)C(=O)N(C6CCC(=O)NC6=O)C7=O)CC5)CC4)c4ccccc4)c3)n[nH]c2C1` (some centres not stated), for which the concentration giving a half-maximal response (EC50) in experiment [1] (read-out: EC50) worked out at 29.3 nM. Moreover, the Emax in experiment [2] amounted to 90%.
On to `COc1cc(C)c(Sc2cnc(NC(=O)c3ccc(CNC(C)C(C)(C)C)cc3)s2)cc1C(=O)N1CCN(C(C)=O)CC1` (configuration not stated), for which the EC50 on Interleukin-2 came to 238 nM.
Consider `CN(CCOCCOCCOCC(=O)Nc1ccc2c(c1)C(=O)N(C1CCC(=O)NC1=O)C2=O)CC[C@@H](c1ccccc1)n1cc(NC(=O)c2n[nH]c3c2CCC(C)(C)C3)cn1` (some centres not stated), for which the EC50 in experiment [1] (read-out: EC50) was 94.1 nM. In addition, the maximal response (Emax) in experiment [2] came to 93%.
The matching figures for `CN(CCOCCNC(=O)CNc1cccc2c1C(=O)N(C1CCC(=O)NC1=O)C2=O)CC[C@@H](c1ccccc1)n1cc(NC(=O)c2n[nH]c3c2CCC(C)(C)C3)cn1` (some centres not stated): 32.7 nM and 99%.
Taken in the same sequence, the figures for `CN(CCCCC(=O)Nc1ccc2c(c1)C(=O)N(C1CCC(=O)NC1=O)C2=O)CC[C@@H](c1ccccc1)n1cc(NC(=O)c2n[nH]c3c2CCC(C)(C)C3)cn1` (some centres not stated) were 5.3 nM and 90%.
Regarding `CC1(C)CCc2c(C(=O)Nc3cnn([C@@H](CCN4CCN(CCC5CN(c6ccc7c(c6)C(=O)N(C6CCC(=O)NC6=O)C7=O)C5)CC4)c4ccccc4)c3)n[nH]c2C1` (some centres not stated), the concentration for a half-maximal effect (EC50) in experiment [1] (read-out: EC50) came out at 142 nM. Further, the Emax in experiment [2] was found to be 90%.
Taken in the same sequence, the figures for `CN(CCOCCOCC(=O)Nc1ccc2c(c1)C(=O)N(C1CCC(=O)NC1=O)C2=O)CC[C@@H](c1ccccc1)n1cc(NC(=O)c2n[nH]c3c2CCC(C)(C)C3)cn1` (some centres not stated) were 26.7 nM and 95%.
